row,melting point,SMILES
1,228 to 230 °C,"COC(=O)c1ccc(Oc2ccc(NC(=O)Nc3ccc(Cl)c(C(F)(F)F)c3)cc2)cn1 [Entry 55, N-(4-chloro-3-(trifluoromethyl)phenyl)-N′-(4-(2-(methoxycarbonyl)-5-pyridyloxy)phenyl)urea]"
2,125 to 130 °C,"CNC(=O)c1cc(Oc2ccc(NC(=O)Nc3ccc(Oc4ccnc(C(=O)NC)c4)cc3)cc2)ccn1 [Entry 103, bis(4-(2-(N-methylcarbamoyl)-4-pyridyloxy)phenyl)urea]"

# Source: US8841330B2, “Omega-carboxyaryl substituted diphenyl ureas as raf kinase inhibitors” (Bayer Healthcare LLC, priority 2000, dated 2014)
